{"source": "patent US11242327B2", "about": "“Analgesic compounds” (RECURIUM IP HOLDINGS, LLC, priority 2017, dated 2022)", "key": {"adult male C57BL/6 mice": {"tested_on": "adult male C57BL/6 mice", "assay": "Conditioned Place Preference (Abuse) Test", "type": "in vivo, mouse", "from_the_text": "A conditioned place preference (CPP) model was used to assess the reward properties of compounds of formulae (Ie), or a pharmaceutically acceptable salt of any of the foregoing, in adult male C57BL/6 mice. The CPP model apparatus consisted of a Plexiglas© test unit having three (A, B, C) compartments (9 cm×9 cm×16 cm) configured to allow access to all chambers. Compartments A and C had textually distinct flooring and wall marking. Mice were placed in the middle compartment with free access to the other compartments. On day 1 and 2, the “naive chamber preference” was assessed by placing the animal in the middle chamber twice a day (AM and PM) for 30 min on two consecutive days, with the chamber showing the greatest residence time being called the “preferred chamber”. On “drug pairing days” (days 5, 6, 7 and 8) mice were injected IP with vehicle (50 mM citric acid) in the AM in the preferred chamber and the drug/vehicle in the afternoon in the non-preferred chamber for four consecutive days. On the morning of day 9 (the day after the last drug pairing), the “drug chamber preference” was assessed by placing the mouse (absent any injection) in the middle chamber, with free access to all chambers for 30 minutes. This was repeated five days later (day fourteen), with no intervening drug treatment.\nThe time spent on days 9 and 14 (e.g. […] respectively after the last drug treatment) in the drug associated chamber was the test datum and is represented in FIG. 1. […] In contrast, there was no increase in the non-preferred chamber residence time when the least-preferred chamber was paired with saline, APAP or test compounds 2 or 28 on either days 9 or 14, or days 0 or 5."}, "male ICR mice": {"tested_on": "male ICR mice", "assay": "Formalin Paw Test, mouse, intraperitoneal", "type": "in vivo", "conditions": "60 mg/kg; for Early Phase, seconds of paw licking: early/acute phase (0-10 minutes); for Late Phase, seconds of paw licking: late/tonic phase (10-35 minutes)", "experimental": "One test compound or the vehicle was administered to each rat or mouse in each test group (8 rats or mice per group). Non-fasted male Sprague-Dawley rats weighing 200-225 g or non-fasted male ICR mice weighing 23±3 g were used. […] Responses were measured every 5 minutes after the formalin injection for 35 minutes. The results in Table 2 are for oral administration in rat and the results in Table 3 are for intraperitoneal administration in mouse. In Tables 2 and 3, 'A' designates <70 seconds of paw licking, 'B' designates >70 and <165 seconds of paw licking, and 'C' designates >165 seconds of paw licking."}, "male Sprague-Dawley rats [1]": {"tested_on": "male Sprague-Dawley rats", "assay": "Post-Incisional (Brennan) Pain Test", "type": "in vivo", "conditions": "rat; for cumulative pain score, 4 h: 4 h post-dosing; for cumulative pain score, 24 h: 24 h post-dosing", "experimental": "Incisional pain was induced in non-fasted male Sprague-Dawley rats weighing 180-300 g by making a 1-cm plantar incision in the left hind paw and is designed to mimic pain and sensitivity similar to what is reported by patients after surgery. Dosing occurred at the time of incision and spontaneous pain was measured 4 and 24 hours post-dosing using a cumulative pain score. The unrestrained animals were placed on a metal mesh platform and allowed to acclimate for about 15 min/ Each animal was closely observed during a 1-min period repeated every 5 min for 1 h (12 times total). Depending on the position in which the foot was found during the scoring period, a score of 0, 1, or 2 was given. Full weight bearing of the foot (score=0) was present if the skin on the plantar surface of the paw wound was blanched or distorted by the mesh. If the foot was completely off the mesh, or one or more instances of licking or flinching was observed, a score of 2 was recorded and the licking or flinching was noted but not counted. If the plantar surface of the paw touched the mesh without blanching or distorting, a score of 1 was given. The sum of the 12 scores obtained during the 1 h session was calculated (maximum score=24) for each animal. Observations were made during hours 4 and 24. Test articles were administered orally at concentrations of 10, 30 or 100 mg/kg and ketoprofen was administered subcutaneously at a concentration of 10 mg/kg. The control group received the vehicle (sterile water). In Table 6, ‘A’ designates a cumulative pain score of ≤11, ‘B’ designates >11 and ≤16, and ‘C’ designates >16.\nThe results provided in Table 6 are for oral administration in rats."}, "Opiate δ2": {"biological_target": "Opiate δ2 (Homo sapiens, UniProt P41143)", "sequence (P41143 whole entry)": "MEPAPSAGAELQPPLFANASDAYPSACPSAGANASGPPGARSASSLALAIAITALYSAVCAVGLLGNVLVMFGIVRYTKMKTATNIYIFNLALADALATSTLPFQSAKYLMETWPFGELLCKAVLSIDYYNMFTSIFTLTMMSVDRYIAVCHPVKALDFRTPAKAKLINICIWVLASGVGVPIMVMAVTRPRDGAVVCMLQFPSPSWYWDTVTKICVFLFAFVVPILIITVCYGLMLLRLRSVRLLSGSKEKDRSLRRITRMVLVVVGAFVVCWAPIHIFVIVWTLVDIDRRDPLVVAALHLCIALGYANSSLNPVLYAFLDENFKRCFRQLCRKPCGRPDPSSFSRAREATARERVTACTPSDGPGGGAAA", "assay": "NSAIDS and Opioid Receptor Test: Opiate δ2", "type": "binding", "conditions": "100 μM", "experimental": "(§1) Compounds were screened as DMSO solutions at 10 μM, 100 μM, or 200 μM and values represent percent inhibition of control-specific binding. […] As NSAID and opioid mechanisms of action are precluded, a person of ordinary skill in the art understands that undesirable side effects associated with inhibition of COX receptors in NSAIDs and activation of opiate receptors in opioids can be avoided by compounds described herein. Furthermore, opioids are known to lose their analgesic potency after to continued administration. (See Benyamin, et al. “Opioid Complications and Side Effects” Pain Physician 11 (2008): S105-S120). As the data indicates compounds described herein have a different mechanism action compared to opioids, a person of ordinary skill in the art would appreciate that compounds described herein would not be expected to lose their analgesic potency like opioids after continued admininistration."}, "Opiate μ": {"biological_target": "Opiate μ (Homo sapiens, UniProt P35372)", "sequence (P35372 whole entry)": "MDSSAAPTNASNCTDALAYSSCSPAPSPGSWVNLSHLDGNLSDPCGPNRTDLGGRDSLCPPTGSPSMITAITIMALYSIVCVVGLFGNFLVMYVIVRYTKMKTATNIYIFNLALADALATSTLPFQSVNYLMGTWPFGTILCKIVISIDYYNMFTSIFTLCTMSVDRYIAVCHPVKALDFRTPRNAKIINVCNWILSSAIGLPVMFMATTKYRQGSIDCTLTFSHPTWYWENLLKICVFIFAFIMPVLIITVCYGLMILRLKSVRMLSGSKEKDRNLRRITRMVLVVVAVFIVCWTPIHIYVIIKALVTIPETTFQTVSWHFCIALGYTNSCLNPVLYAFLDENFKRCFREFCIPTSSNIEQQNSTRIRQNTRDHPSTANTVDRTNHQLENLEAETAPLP", "assay": "NSAIDS and Opioid Receptor Test: Opiate μ", "type": "binding", "conditions": "100 μM", "experimental": "as §1"}, "Opiate κ": {"biological_target": "Opiate κ (Homo sapiens, UniProt P41145)", "sequence (P41145 whole entry)": "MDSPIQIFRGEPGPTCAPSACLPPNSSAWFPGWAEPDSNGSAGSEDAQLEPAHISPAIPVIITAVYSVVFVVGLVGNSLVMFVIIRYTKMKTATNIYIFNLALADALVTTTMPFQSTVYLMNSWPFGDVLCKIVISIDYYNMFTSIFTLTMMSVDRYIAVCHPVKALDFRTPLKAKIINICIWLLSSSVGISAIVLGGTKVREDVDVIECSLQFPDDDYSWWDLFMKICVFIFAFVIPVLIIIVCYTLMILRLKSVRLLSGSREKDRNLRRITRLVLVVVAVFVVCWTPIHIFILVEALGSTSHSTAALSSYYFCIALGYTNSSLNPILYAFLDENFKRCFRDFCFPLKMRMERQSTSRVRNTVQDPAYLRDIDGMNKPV", "assay": "NSAIDS and Opioid Receptor Test: Opiate κ", "type": "binding", "conditions": "100 μM", "experimental": "as §1"}, "male Sprague-Dawley rats [2]": {"tested_on": "male Sprague-Dawley rats", "assay": "Spinal Nerve Ligation (SNL) Neuropathic Pain Test", "type": "in vivo", "conditions": "rat, oral, 100 mg/kg", "experimental": "Neuropathy was induced in non-fasted male Sprague-Dawley rats weighing 75-100 g by surgically ligating the 4th and 5th lumbar spinal nerves (L4 and L5), a procedure also known as spinal nerve ligation (SNL). Animals were placed in individual acrylic chambers on a metal mesh surface and allowed to acclimate to their surroundings for a minimum of 15 minutes before testing. Mechanical sensitivity was assessed using 8 Semmes-Weinstein filaments (Stoelting©; Wood Dale, Ill., USA) with varying stiffness (0.4, 0.6, 1.0, 2.0, 4.0, 6.0, 8.0, and 15 g) according to an up-down method to determine 50% response thresholds. Each filament was presented perpendicular to the plantar surface with sufficient force to cause slight buckling against the paw and held for approximately 6 seconds or until a positive response is noted (paw sharply withdrawn). Testing was initiated with the 2.0 g filament. In the absence of a paw withdrawal response, the next stronger stimulus was presented. In the event of paw withdrawal, the next weaker stimulus was used. This process was repeated until 4 responses after the initial change in response (no response to positive response or positive response to no response) were obtained. […] The 50% response threshold was calculated using the formula: 50% response threshold (g)=(10^(Xf+kδ))/10,000;\nXf=value (in log units) of the final von Frey filament used;\nk=tabular value for the pattern of positive/negative responses (See Chaplan, et al. “Quantitative Assessment of Tactile Allodynia in the Rat Paw” J. Neurosci. Meth. 53.1 (1994): 56-63);\n[…] =mean difference (in log units) between stimuli.\nThe mean and standard error of the mean (SEM) were determined for each paw for each treatment group at each time point. Thresholds were determined prior to surgery and again 14 days later. After 14 days, test or control compounds were administered and thresholds were again determined 1, 2, and 4 hours after compound administration. Median response thresholds in compound-treated animals were compared to those in vehicle treated animals to determine anti-allodynic efficacy of test and control compounds. Test compounds were administered orally at concentrations of 10, 30 or 100 mg/kg and gabapentin was administered orally at a concentration of 100 mg/kg. The control group received the vehicle (sterile water). In Table 7, ‘A’ designates a 50% threshold of ≥8 grams, ‘B’ designates a 50% threshold of ≥6 and <8 grams, and ‘C’ designates a 50% threshold of <6 grams.\nThe results provided in Table 7 are for oral administration in rats."}}, "note": "Counter-ions that a name gives are not always drawn.", "data": [{"compound": "CN1CC[C@]23c4c5ccc(O)c4O[C@H]2[C@@H](O)C=C[C@H]3[C@H]1C5", "note": "[morphine, reference compound]", "values": [{"measurement": "least preferred (drug associated) chamber residence time", "setting": "adult male C57BL/6 mice; mice, IP, drug pairing 4 consecutive days, assessed on day 9", "value": "significant increase"}, {"measurement": "least preferred (drug associated) chamber residence time", "setting": "adult male C57BL/6 mice; mice, IP, drug pairing 4 consecutive days, assessed on day 14", "value": "significant increase"}]}, {"compound": "CCOC(=O)NC12CC(C(F)(F)F)(C1)C2", "note": "[Compound 24, Ethyl (3-(trifluoromethyl)bicyclo[1.1.1]pentan-1-yl)carbamate]", "values": [{"measurement": "Early Phase, seconds of paw licking", "setting": "male ICR mice", "value": "A (<70 seconds of paw licking)"}, {"measurement": "Late Phase, seconds of paw licking", "setting": "male ICR mice", "value": "B (>70 and <165 seconds of paw licking)"}]}, {"compound": "NC12CC(C(F)(F)F)(C1)C2", "note": "[Compound 28, 3-(trifluoromethyl)bicyclo[1.1.1]pentan-1-amine hydrochloride]", "values": [{"measurement": "cumulative pain score, 4 h", "setting": "male Sprague-Dawley rats [1]; oral, 10 mg/kg", "value": "C (>16)"}, {"measurement": "cumulative pain score, 24 h", "setting": "male Sprague-Dawley rats [1]; oral, 10 mg/kg", "value": "C (>16)"}, {"measurement": "cumulative pain score, 4 h", "setting": "male Sprague-Dawley rats [1]; oral, 30 mg/kg", "value": "B (>11 and ≤16)"}, {"measurement": "cumulative pain score, 24 h", "setting": "male Sprague-Dawley rats [1]; oral, 30 mg/kg", "value": "B (>11 and ≤16)"}, {"measurement": "cumulative pain score, 4 h", "setting": "male Sprague-Dawley rats [1]; oral, 100 mg/kg", "value": "B (>11 and ≤16)"}, {"measurement": "cumulative pain score, 24 h", "setting": "male Sprague-Dawley rats [1]; oral, 100 mg/kg", "value": "A (a cumulative pain score of ≤11)"}, {"measurement": "inhibition at 100 µM", "setting": "Opiate δ2", "value": 2, "unit": "%"}, {"measurement": "least preferred (drug associated) chamber residence time", "setting": "adult male C57BL/6 mice; mouse, in vivo, ip", "value": "no increase"}, {"measurement": "inhibition at 100 µM", "setting": "Opiate μ", "value": 3, "unit": "%"}, {"measurement": "inhibition at 100 µM", "setting": "Opiate κ", "value": 1, "unit": "%"}]}, {"compound": "NCC1(CC(=O)O)CCCCC1", "note": "[Gabapentin, reference compound]", "values": [{"measurement": "50% response threshold, 1 h", "setting": "male Sprague-Dawley rats [2]; 1 h after administration", "value": "B (a 50% threshold of ≥6 and <8 grams)"}, {"measurement": "50% response threshold, 2 h", "setting": "male Sprague-Dawley rats [2]; 2 h after administration", "value": "A (a 50% threshold of ≥8 grams)"}, {"measurement": "50% response threshold, 4 h", "setting": "male Sprague-Dawley rats [2]; 4 h after administration", "value": "A (a 50% threshold of ≥8 grams)"}]}, {"compound": "CC(C(=O)O)c1cccc(C(=O)c2ccccc2)c1", "note": "(stereo not drawn) [Ketoprofen, reference compound]", "values": [{"measurement": "cumulative pain score, 4 h", "setting": "male Sprague-Dawley rats [1]; subcutaneously, 10 mg/kg", "value": "B (>11 and ≤16)"}, {"measurement": "cumulative pain score, 24 h", "setting": "male Sprague-Dawley rats [1]; subcutaneously, 10 mg/kg", "value": "A (a cumulative pain score of ≤11)"}]}, {"compound": "CC(C)[C@H](N)C(=O)NC12CC(C(F)(F)F)(C1)C2", "note": "[Compound 23, (S)-2-Amino-3-methyl-N-(3-(trifluoromethyl)bicyclo[1.1.1]pentan-1-yl)butanamide hydrochloride]", "values": [{"measurement": "Early Phase, seconds of paw licking", "setting": "male ICR mice", "value": "A (<70 seconds of paw licking)"}, {"measurement": "Late Phase, seconds of paw licking", "setting": "male ICR mice", "value": "C (>165 seconds of paw licking)"}]}]}
